The values that follow come from US20190010167A1, “INHIBITORS OF THE MENIN-MLL INTERACTION” (Vitae Pharmaceuticals, Inc., priority 2015, published 2019).

pIC50: −log10 of the molar value.

Broadly, the pIC50 is the negative decadic logarithm of the IC50, by convention in mol/L.

Assay [1] addresses T1, mutated menin / MLL-AF9 fusion protein (Homo sapiens, UniProt O00255).
T1 construct: biotinylated (1) wild-type menin or (2) mutated menin (described in Nature (2012) Vol. 482, pp. 542-548); fused on or other part: Biotin attached chemically with Sulfo-NHS-Biotin; This is a label, not a fusion
T1 sequence (O00255 1-610): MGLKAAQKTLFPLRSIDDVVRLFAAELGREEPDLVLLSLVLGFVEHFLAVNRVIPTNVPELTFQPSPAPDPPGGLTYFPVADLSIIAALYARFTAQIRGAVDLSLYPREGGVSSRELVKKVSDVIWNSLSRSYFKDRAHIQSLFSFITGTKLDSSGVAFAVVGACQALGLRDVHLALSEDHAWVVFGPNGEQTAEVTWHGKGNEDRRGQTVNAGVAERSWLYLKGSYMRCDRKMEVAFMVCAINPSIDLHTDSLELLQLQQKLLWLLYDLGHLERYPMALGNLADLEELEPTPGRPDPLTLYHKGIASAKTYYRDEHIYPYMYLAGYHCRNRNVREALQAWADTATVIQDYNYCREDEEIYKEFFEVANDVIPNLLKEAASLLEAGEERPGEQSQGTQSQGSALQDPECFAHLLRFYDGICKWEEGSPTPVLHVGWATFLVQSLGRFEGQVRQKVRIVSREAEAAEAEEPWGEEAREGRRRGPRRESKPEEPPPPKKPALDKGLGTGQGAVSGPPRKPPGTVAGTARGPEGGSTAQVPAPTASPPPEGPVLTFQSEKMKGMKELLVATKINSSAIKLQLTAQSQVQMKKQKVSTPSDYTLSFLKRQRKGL
The assay is described as follows: AlphaLISA menin/MLL binding assay, mutated menin (Assay 1). The note with it: biotinylated mutated menin 5 nM, MLL-AF9-FLAG lysate, read-out: Assay 1 Mutant Menin IC50. As for the experimental part:
Potencies of inhibitor compounds against menin/MLL binding were assessed by AlphaLISA assay using biotinylated (1) wild-type menin or (2) mutated menin (described in Nature (2012) Vol. 482, pp. 542-548) and MLL-AF9 fusion protein bearing a FLAG epitope at its C-terminus. Menin proteins were expressed in E. coli and covalently modified with biotin using EZ-Link™ Sulfo-NHS-Biotin (ThermoFisher Cat. No. 21217) according to manufacturer's protocol. MLL1-1,396 fused to AF91-92 and the C-terminal FLAG peptide was expressed in HEK293 cells and used as a lysate cleared at 21,000×g for 10 min.
Compounds (2 μL of solutions in DMSO) were dispensed in white 96-well half-area plates (Corning Cat. No. 3693) and incubated for 30 min at RT with 5 nM biotinylated menin and appropriate amount of MLL-AF9-FLAG lysate in 40 μL of 50 mM Tris-HCl buffer pH 7.4 containing 5% (v/v) DMSO, 50 mM NaCl, 0.01% (w/v) bovine serum albumin (BSA) and 1 mM DTT. To this incubation mixture, 40 μl of AlphaLISA anti-FLAG acceptor (PerkinElmer Cat. No. AL112C) and streptavidin donor (PerkinElmer Cat. No. 6760002) beads (10 μg/mL each) was added and incubation continued at RT for 60 min. Alpha (amplified luminescent proximity homogeneous assay) signal was measured on an Envision multi-label plate reader at the end of the incubation. All steps were conducted under dim fluorescent light.
These percent inhibition values were regressed against compound concentrations in the assay using four parameter logit non-linear curve fitting (XLFit, IDBS). The IC50 values were derived from the curve fitting as inflection points on the dose-response curves and are set out in Table 1 below.
Background: Alpha assays give light when donor and acceptor beads are brought close together.

Assay [2] deals with T2, menin/MLL (Gal4-Menin and MLL1-46-VP16) in HEK293 cells (Homo sapiens, UniProt O00255).
T2 construct: expressed in transfected cells; host or cells: HEK293 (ATCC)
The assay is described as follows: Mammalian cellular two-hybrid assay in HEK293 cells (Assay 2, cell assay). The note with it: Gal4-Menin/MLL1-46-VP16 two-hybrid, NanoLuc luciferase reporter, 16-18 h. It counts as cell-based. In outline:
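HEK293 cells co-transfected with Gal4-Menin, MLL1-46-VP16 and a 4×UAS secreted NanoLuc reporter, then exposed to compound for 16-18 h at 37 °C in 10% delipidated FBS (0.1% DMSO). Inhibition from secreted NanoLuc relative to DMSO and 5 μM MI-2-2, with 4-parameter IC50 fit. CellTiter-Glo measured toxicity.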
In general terms: In a reporter assay the amount or activity of a reporter protein is the signal.

T2 sequence (P04386 1-147 partner limits assumed, species assumed, one chain of several): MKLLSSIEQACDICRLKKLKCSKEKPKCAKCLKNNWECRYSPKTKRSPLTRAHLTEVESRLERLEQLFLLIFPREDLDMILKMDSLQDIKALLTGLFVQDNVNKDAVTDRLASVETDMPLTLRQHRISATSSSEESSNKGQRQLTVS

Take `CC(C)N1CCC2(CCN(c3ncnc4sc(CC(F)(F)F)cc34)CC2)C1` [Example 25, 4-(2-isopropyl-2,8-diazaspiro[4.5]decan-8-yl)-6-(2,2,2-trifluoroethyl)thieno[2,3-d]pyrimidine]: the pIC50 in assay [1] is 6.00 to 7.00; in assay [2] it was ≤ 6.00. With `CC1(C)CN=C(N2CC3(C2)CN(c2ncnc4ccc(OC(F)(F)F)cc24)C3)S1` [Example 88, 5,5-dimethyl-2-(6-(6-(trifluoromethoxy)quinazolin-4-yl)-2,6-diazaspiro[3.3]heptan-2-yl)-4,5-dihydrothiazole], the pIC50 in assay [1] is ≤ 6.00.
